Results published in PMC7292537, “BGAL1 depletion boosts the level of β‐galactosylation of N‐ and O‐glycans in N. benthamiana” (Plant Biotechnology Journal, 2020).

Test system: T1, NbBGAL1 (SPα-BGAL1)
T1 construct: mature residues 25-846 (GH35 + Gal-lectin domain), own signal peptide replaced by barley alpha-amylase signal peptide, C-terminal StrepII tag (WSHPQFEK); transiently expressed in N. benthamiana, apoplastic fluid not purified; 95 kDa full length plus 48 kDa GH35 and 38 kDa truncated forms; precursor 846 aa
Test: fluorescein release, Hanes-Woolf and Lineweaver-Burk
Assay type: biochemical, Nicotiana benthamiana
Details: read-out: apparent KM; apoplastic fluid with overexpressed enzyme; 50 mM MES pH 5.0, 25 °C, 1 h; FDG 0-250 µM (printed unit mM doubtful, perhaps µM); unit of the source corrected; heading: apparent KM

Km: 0.0298 mM
SMILES: O=C1OC2(c3ccc(O[C@@H]4O[C@H](CO)[C@H](O)[C@H](O)[C@H]4O)cc3Oc3cc(O[C@@H]4O[C@H](CO)[C@H](O)[C@H](O)[C@H]4O)ccc32)c2ccccc21 [FDG, fluorescein di-β-D-galactopyranoside]
